Test results: patent US20220267270A1, “STING MODULATORS, COMPOSITIONS, AND METHODS OF USE” (University of South Florida, priority 2019, published 2022)

Tests used:
[1] = test system: STING pathway (interferon stimulated genes, IRF3 promoter); experiment: Luciferase reporter assay in THP1-ISG-Lucia cells
Protocol: To maintain selection pressure, 10 μg/ml of blasticidin and 100 μg/ml of Zeocin™ was added to the growth medium every other passage.
For compounds, 10 mM stock solution in 100% DMSO was diluted 1:4 with ultrapure Milli Q water. For the positive control, 1 mM stock solution in 100% Milli Q H2O was diluted 3:1 with water. 50 μL of QUANTI-Luc™ luminesence assay reagent (Invivogen) was added after 18-24 h incubation period. Expression of Lucia luciferase was quantified by measuring luminescence from duplicate treatments. Data illustrated were average luminescence changes shown relative to DMSO-treated cells.
For compounds, 10 mM stock solution in 100% DMSO was diluted 1:4 with ultrapure Milli Q water. For the positive control, 1 mM stock solution in 100% Milli Q H2O was diluted 3:1 with water. 50 μL of QUANTI-Luc™ luminesence assay reagent (Invivogen, San Diego, Calif., USA) was added after 18-24 h incubation period. Expression of Lucia luciferase was quantified by measuring luminescence from duplicate treatments. Data illustrated are average luminescence changes shown relative to DMSO-treated cells. A Glowmax luminometer (Promega, Madison, Wis., USA) was used. QUANTI-Luc™ was prepared following the manufacturer's instructions. 10 μl of THP1-Dual™ KI-hSTING-R232 cell culture supernatant was pipetted into each well in a 96-well white (opaque) plate. 50 μl of QUANTI-Luc™ was added to each well. The measurement was then immediately taken using a 4 sec incubation time and integrating over 1 sec.
A luciferase assay utilizing monocytic leukemia THP-1 cells was carried out to determine the upregulation of the IRF3 promoter gene as a downstream indicator of STING pathway activation.
FIG. 4C depicts a plot of luminescence vs. log of concentration of a luciferase assay utilizing monocytic leukemia THP-1 cells that was carried out to determine the regulation of interferon stimulated genes (ISG).

[2] = molecular target: His-labeled STING (hSTING) (Homo sapiens, UniProt Q86WV6); experiment: Microscale thermophoresis (MST) binding assay; settings: for direct binding to hSTING by MST: FIG. 4
Protocol: Nanotemper Monolith NT.115 labeled thermophoresis machine was used with standard treated capillary tubes using samples comprised of labeled protein and titrations of small molecule in 1×PBS. […] Detection of the protein was performed using the blue detection channel with LED excitation power set to 90% and MST set to high allowing 3 s prior to MST on to check for initial fluorescence differences, 25 s for thermophoresis, and 3 s for regeneration after MST off.

[3] = molecular target: His-tagged human STING CDN domain (Homo sapiens, UniProt Q86WV6); experiment: Surface Plasmon Resonance (SPR) binding; settings: steady state
Protocol: SPR was employed for binding measurements using His-tagged human STING CDN domain. A GE Healthcare Biacore T200 was equipped with an Ni-NTA chip. […] The sensorgrams were analyzed using Biacore T200 Software 3.0 (GE Healthcare) and steady state was measured at 4 sec before injection stop, exported into Graphpad, and fit vs concentration using a one site specific binding model to calculate the apparent equilibrium dissociation constant (KD). Where appropriate, kinetics were measured using a 1:1 Langmuir binding model with Rmax set to local to obtain the association rate (Kon), dissociation (Koff), and the KD.

[4] = test system: STING-induced IRF3 expression; experiment: Competition of 335504 with agonist 2,3-cGAMP in THP-1 cells; assay type: cell-based, human
Description: FIG. 6 depicts the effect of various concentrations of 335504 and known agonist 2,3-cGAMP on luminescence measured from THP-1 monocytic leukemia cells. […] This effect, however, is not seen at higher concentrations due to the synergistic effect of the compounds on the IFN-β signaling pathway in these cells.

hSTING = hSTING (Homo sapiens, UniProt Q86WV6); settings: native ligand, literature ITC value used for model validation; read-out: ITC binding energetics (KD); cited from earlier work
hSTING, sequence (Q86WV6 139-379 H232R limits assumed): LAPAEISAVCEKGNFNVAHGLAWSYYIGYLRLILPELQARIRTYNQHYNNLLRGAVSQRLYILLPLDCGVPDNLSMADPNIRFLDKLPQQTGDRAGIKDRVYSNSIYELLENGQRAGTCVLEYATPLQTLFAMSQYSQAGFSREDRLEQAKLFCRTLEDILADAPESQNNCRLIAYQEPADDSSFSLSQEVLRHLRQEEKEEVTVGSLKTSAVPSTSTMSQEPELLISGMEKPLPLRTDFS

His-labeled STING (hSTING), sequence (Q86WV6 153-340 H232R limits assumed): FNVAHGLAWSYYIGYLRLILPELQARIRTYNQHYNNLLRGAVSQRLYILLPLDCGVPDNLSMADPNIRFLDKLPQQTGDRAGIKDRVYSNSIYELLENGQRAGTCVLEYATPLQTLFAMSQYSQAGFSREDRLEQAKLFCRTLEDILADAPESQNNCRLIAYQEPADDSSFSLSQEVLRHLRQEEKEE
His-tagged human STING CDN domain, sequence (Q86WV6 153-340 H232R limits assumed): as above

Row | Compound | ISG output (luminescence) vs DMSO blank ([1]; 3 μM, FIG. 2) | effect on cells at higher concentrations ([1]; >20 μM, DMSO percentages increased) | EC50 ([1]; Homo sapiens, THP-1, read-out: luciferase assay EC50) | effect in luciferase assay compared to 2,3-cGAMP ([1]; THP-1 cells) | increase in Luciferase activity compared to the blank ([1]; THP-1 cells, FIG. 4) | direct binding to hSTING by MST [2] | Kd ([2]; rough initial estimate of binding affinity) | Kd [3] | IC50 ([4]; Homo sapiens, THP-1 monocytic leukemia cells, with agonist 2,3-cGAMP, FIG. 7) | competition with 2,3-cGAMP (luminescence) ([4]; single to double digit concentrations of 335504, FIG. 6) | Kd (hSTING)
1 | Cc1c(Cl)cccc1Nc1ncccc1C(=O)OCC(O)CO (stereo not shown) [NSC 335504] | large increase in ISG output | appeared to cause cell death | 29000 ± 1600 nM | significantly lower | 50% | bind to hSTING | 260 ± 66 nM | 430 ± 140 nM | ~4.8 nM | competition of the compound with 2,3cGAMP can be observed | 
2 | Nc1nc2c(ncn2[C@@H]2O[C@@H]3COP(=O)(O)O[C@H]4[C@@H](O)[C@H](n5cnc6c(=O)[nH]c(N)nc65)O[C@@H]4COP(=O)(O)O[C@H]3[C@H]2O)c(=O)[nH]1 [c-di-GMP] |  |  |  |  |  | binds but with lesser affinity |  | 4800 nM |  |  | 1200 nM
